According to ChEMBL document CHEMBL4422610, “HDAC as onco target: Reviewing the synthetic approaches with SAR study of their inhibitors” (Eur J Med Chem, 2018):

What was measured:
[1] = target: Histone deacetylase 1 (Homo sapiens, UniProt Q13547); assay: Inhibition of human HDAC1 using fluorogenic HDAC substrate
[2] = target: Histone deacetylase 2 (Homo sapiens, UniProt Q92769); assay: Inhibition of human HDAC2 using fluorogenic HDAC substrate
[3] = target: Histone deacetylase 3 (Homo sapiens, UniProt O15379); assay: Inhibition of human HDAC3 using fluorogenic HDAC substrate
Histone deacetylase 3, sequence (O15379 whole entry): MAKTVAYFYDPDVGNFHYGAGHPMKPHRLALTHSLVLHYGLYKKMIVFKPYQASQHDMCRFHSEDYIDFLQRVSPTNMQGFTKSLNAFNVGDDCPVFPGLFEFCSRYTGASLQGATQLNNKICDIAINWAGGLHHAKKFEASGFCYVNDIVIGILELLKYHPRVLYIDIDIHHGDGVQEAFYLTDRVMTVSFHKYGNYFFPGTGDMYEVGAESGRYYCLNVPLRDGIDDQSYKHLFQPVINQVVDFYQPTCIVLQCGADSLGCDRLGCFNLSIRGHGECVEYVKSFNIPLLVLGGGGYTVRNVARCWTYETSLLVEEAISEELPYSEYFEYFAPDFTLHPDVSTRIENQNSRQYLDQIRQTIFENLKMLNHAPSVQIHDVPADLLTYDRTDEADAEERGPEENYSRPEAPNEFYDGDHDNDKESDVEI

[4] = target: Histone deacetylase 4 (Homo sapiens, UniProt P56524); assay: Inhibition of human HDAC4 using fluorogenic HDAC substrate
Histone deacetylase 4, sequence (P56524 whole entry): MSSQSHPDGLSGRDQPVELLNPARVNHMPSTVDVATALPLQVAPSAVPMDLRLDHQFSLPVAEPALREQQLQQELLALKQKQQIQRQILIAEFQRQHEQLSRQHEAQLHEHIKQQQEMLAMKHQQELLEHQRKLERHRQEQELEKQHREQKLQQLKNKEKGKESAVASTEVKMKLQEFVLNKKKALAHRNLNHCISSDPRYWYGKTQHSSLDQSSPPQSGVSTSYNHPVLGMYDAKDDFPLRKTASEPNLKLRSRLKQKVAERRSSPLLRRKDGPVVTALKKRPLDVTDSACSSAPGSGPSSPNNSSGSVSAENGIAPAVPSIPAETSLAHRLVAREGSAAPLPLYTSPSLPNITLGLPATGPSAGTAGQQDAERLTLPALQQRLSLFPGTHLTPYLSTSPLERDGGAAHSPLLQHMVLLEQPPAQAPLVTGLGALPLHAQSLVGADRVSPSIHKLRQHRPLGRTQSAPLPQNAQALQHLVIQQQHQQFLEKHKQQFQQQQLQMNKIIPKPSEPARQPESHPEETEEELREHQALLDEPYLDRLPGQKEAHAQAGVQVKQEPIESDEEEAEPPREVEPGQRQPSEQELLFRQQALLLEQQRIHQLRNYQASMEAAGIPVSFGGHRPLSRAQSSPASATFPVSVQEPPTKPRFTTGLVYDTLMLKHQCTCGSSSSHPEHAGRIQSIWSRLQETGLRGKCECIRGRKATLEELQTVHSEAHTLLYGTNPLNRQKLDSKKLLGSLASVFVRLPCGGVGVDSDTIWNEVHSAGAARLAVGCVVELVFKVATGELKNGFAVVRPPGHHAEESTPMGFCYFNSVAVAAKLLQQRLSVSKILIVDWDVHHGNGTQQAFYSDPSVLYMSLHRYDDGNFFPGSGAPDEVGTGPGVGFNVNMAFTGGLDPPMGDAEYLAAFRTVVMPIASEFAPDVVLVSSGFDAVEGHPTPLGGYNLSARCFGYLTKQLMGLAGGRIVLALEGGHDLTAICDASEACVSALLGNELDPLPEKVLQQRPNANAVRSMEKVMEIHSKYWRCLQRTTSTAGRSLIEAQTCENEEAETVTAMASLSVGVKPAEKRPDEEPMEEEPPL

[5] = target: Histone deacetylase 5 (Homo sapiens, UniProt Q9UQL6); assay: Inhibition of human HDAC5 using fluorogenic HDAC substrate
Histone deacetylase 5, sequence (Q9UQL6 whole entry): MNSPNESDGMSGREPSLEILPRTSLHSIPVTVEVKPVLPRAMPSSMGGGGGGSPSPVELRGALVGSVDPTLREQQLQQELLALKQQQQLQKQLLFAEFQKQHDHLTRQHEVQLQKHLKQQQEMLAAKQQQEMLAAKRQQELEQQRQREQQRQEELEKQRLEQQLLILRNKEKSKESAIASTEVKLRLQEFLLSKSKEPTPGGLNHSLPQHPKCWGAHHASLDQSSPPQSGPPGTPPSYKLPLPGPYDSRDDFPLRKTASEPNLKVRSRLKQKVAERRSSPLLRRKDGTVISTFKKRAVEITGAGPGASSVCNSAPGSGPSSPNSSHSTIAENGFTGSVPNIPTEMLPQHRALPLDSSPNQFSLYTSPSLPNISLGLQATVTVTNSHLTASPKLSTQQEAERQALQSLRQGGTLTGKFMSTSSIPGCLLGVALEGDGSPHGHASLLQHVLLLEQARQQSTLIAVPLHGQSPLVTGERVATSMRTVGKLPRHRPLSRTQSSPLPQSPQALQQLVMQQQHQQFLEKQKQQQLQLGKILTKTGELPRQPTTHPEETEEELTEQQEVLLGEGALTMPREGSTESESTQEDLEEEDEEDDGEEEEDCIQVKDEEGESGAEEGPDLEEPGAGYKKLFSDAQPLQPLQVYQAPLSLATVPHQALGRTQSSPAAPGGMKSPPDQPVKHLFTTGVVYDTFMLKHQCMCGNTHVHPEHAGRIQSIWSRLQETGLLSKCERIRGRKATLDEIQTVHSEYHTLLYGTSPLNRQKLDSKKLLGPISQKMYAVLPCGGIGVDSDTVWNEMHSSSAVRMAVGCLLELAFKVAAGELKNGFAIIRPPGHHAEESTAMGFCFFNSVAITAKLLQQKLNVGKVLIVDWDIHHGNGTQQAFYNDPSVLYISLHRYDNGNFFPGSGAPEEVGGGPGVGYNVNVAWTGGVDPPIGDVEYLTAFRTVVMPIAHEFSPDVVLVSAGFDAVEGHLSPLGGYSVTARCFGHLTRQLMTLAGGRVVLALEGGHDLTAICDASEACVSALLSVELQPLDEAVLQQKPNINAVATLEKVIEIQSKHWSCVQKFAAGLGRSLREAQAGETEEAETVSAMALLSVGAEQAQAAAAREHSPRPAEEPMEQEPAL

[6] = target: T1, Protein deacetylase HDAC6 (Homo sapiens, UniProt Q9UBN7); assay: Inhibition of human HDAC6 using fluorogenic HDAC substrate
T1 sequence (Q9UBN7 whole entry): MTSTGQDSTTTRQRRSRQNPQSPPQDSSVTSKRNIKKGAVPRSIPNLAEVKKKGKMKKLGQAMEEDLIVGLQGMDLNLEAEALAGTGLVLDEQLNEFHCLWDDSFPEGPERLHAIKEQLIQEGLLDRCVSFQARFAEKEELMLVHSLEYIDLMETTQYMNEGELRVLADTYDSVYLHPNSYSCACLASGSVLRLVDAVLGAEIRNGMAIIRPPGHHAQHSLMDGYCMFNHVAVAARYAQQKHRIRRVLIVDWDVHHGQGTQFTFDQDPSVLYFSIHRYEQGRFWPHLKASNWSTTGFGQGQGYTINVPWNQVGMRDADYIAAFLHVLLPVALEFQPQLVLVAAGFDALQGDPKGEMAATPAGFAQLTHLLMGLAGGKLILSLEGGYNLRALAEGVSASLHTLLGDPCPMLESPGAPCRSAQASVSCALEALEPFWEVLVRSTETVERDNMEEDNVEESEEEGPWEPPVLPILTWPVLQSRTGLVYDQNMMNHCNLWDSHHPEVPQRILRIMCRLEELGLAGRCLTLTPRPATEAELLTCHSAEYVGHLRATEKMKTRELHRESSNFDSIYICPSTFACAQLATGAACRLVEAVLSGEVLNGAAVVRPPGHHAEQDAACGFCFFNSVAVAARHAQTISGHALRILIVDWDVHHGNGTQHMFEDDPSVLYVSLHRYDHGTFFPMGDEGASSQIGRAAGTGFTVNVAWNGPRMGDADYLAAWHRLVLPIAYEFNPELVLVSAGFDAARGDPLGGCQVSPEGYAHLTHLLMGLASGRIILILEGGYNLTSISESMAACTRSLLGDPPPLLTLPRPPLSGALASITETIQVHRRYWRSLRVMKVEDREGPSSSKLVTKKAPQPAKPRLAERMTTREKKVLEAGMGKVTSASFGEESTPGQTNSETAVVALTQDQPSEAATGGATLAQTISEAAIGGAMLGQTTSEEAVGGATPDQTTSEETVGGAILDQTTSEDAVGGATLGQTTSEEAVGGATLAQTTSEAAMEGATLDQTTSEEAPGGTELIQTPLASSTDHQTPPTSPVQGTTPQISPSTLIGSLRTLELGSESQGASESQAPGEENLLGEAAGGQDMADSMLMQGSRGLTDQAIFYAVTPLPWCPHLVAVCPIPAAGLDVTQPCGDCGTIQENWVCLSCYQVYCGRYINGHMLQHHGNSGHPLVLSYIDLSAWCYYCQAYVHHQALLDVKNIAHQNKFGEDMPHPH

[7] = target: T2, Histone deacetylase 8 (Homo sapiens, UniProt Q9BY41); assay: Inhibition of human HDAC8 using fluorogenic HDAC substrate
T2 sequence (Q9BY41 whole entry): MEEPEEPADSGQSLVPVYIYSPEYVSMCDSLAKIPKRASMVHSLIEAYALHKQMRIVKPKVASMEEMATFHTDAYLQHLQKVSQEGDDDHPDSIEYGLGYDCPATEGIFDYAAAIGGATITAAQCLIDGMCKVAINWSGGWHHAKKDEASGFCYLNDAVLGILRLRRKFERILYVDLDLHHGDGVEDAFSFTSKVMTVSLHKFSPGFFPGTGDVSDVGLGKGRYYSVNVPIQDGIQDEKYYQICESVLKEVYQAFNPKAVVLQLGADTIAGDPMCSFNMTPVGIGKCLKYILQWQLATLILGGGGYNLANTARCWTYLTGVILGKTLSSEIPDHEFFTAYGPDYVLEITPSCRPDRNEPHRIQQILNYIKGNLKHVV

[8] = target: Histone deacetylase 9 (Homo sapiens, UniProt Q9UKV0); assay: Inhibition of human HDAC9 using fluorogenic HDAC substrate
Histone deacetylase 9, sequence (Q9UKV0 whole entry): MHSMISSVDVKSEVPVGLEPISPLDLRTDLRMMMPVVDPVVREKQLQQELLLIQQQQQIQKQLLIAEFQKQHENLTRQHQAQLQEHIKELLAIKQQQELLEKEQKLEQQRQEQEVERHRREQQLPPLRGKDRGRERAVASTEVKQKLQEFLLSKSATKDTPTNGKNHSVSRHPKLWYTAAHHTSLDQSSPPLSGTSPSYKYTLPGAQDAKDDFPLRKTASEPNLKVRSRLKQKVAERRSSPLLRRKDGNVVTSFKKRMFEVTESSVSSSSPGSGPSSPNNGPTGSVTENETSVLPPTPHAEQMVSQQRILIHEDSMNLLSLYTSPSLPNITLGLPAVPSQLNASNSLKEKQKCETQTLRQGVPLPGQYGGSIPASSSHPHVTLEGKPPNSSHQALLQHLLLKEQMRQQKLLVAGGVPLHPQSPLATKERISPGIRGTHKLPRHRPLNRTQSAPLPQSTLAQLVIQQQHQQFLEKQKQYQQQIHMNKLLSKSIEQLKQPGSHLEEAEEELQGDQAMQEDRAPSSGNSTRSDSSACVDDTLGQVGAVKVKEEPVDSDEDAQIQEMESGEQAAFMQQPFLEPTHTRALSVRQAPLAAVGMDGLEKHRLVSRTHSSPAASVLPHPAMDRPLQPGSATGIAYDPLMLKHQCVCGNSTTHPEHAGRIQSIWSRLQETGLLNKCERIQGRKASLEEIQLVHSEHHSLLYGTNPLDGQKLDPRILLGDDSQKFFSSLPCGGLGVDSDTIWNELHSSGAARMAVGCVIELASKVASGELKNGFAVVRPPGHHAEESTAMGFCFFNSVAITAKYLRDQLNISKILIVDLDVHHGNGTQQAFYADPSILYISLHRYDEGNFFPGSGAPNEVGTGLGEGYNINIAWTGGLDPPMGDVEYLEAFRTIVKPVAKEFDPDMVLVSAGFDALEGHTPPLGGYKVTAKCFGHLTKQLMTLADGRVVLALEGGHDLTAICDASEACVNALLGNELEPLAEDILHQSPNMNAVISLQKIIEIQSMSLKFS

[9] = target: T3, Polyamine deacetylase HDAC10 (Homo sapiens, UniProt Q969S8); assay: Inhibition of human HDAC10 using fluorogenic HDAC substrate
T3 sequence (Q969S8 whole entry): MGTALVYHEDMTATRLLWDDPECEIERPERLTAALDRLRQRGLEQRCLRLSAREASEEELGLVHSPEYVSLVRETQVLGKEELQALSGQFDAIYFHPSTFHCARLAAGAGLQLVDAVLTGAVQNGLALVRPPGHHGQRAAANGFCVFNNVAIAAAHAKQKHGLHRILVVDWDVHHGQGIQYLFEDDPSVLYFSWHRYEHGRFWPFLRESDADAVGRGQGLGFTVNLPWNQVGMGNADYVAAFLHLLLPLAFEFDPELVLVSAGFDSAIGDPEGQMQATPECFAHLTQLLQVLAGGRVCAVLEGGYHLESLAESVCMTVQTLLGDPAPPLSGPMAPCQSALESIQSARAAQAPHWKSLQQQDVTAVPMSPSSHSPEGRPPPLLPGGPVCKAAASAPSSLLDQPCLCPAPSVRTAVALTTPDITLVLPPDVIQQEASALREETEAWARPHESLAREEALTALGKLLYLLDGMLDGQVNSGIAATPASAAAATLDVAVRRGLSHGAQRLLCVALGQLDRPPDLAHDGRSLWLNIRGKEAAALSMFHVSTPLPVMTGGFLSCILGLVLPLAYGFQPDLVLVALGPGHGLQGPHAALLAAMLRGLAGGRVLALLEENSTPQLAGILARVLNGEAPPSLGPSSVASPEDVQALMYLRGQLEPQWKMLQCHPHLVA

[10] = target: T4, Histone deacetylase 11 (Homo sapiens, UniProt Q96DB2); assay: Inhibition of human HDAC11 using fluorogenic HDAC substrate
T4 sequence (Q96DB2 whole entry): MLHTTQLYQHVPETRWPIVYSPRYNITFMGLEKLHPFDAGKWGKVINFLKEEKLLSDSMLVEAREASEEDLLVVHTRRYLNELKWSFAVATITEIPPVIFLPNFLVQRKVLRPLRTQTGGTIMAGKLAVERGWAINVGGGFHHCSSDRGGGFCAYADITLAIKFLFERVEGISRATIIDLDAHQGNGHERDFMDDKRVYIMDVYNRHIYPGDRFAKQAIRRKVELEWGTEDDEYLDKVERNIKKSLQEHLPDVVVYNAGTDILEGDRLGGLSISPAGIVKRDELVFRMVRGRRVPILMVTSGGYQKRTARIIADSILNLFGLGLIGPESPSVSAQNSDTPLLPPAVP

Histone deacetylase 2, sequence (Q92769 whole entry): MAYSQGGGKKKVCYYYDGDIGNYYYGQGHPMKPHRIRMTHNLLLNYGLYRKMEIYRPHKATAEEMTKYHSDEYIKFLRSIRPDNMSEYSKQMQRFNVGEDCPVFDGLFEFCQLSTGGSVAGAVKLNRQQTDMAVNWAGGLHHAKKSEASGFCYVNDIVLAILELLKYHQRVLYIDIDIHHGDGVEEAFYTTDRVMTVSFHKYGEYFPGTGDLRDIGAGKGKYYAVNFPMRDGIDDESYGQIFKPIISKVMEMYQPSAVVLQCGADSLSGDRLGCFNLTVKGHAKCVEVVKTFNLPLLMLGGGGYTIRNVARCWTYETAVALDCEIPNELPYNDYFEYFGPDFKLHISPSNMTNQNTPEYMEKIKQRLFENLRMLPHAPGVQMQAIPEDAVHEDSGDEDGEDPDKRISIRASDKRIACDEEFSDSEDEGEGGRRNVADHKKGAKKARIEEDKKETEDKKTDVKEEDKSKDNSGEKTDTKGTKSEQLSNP
Histone deacetylase 1, sequence (Q13547 whole entry): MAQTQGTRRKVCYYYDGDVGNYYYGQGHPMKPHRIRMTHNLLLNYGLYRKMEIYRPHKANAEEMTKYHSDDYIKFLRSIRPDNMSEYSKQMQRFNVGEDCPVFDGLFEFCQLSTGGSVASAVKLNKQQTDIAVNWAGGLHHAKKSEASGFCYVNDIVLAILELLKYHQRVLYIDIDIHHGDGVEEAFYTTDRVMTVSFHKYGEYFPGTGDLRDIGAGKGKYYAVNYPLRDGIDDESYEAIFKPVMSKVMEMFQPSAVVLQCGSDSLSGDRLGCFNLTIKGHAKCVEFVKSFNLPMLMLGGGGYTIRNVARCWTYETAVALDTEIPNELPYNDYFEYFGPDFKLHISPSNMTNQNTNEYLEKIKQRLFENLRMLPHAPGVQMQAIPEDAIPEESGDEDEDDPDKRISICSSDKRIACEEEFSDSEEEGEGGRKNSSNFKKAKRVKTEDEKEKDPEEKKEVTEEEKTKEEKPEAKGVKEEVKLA

O=C(NO)c1ccc(CN2c3ccccc3CC[C@@H]3CCCC[C@H]32)cc1
IC50 [1]: 4.9 µM
IC50 [2]: 26 µM
IC50 [3]: > 30 µM
IC50 [4]: > 30 µM
IC50 [5]: 12 µM
IC50 [6]: 0.006 µM
IC50 [7]: 2.9 µM
IC50 [8]: 8.9 µM
IC50 [9]: 14 µM
IC50 [10]: 0.54 µM
